From patent US7833939B2, “Herbicide compositions” (Kumiai Chemical Industry Co., Ltd., priority 2002, dated 2010)
Values belong to the molecule of their own block, whether it stands above or below them.

Assays:
corn [1] = assay: Herbicidal effect by upland field soil treatment (Application Example 2): phytotoxicity to corn; type: in vivo; conditions: 30th day from treatment
Description: (§1) Test for Herbicidal Effect by Upland Field Soil Treatment
(§2) An upland field soil was filled in a plastic pot of 11 cm each of length, width and depth. Seeds of corn and velvetleaf (Abutilon theophrasti Medic) were sowed, followed by covering with the same soil. The wettable powder produced in accordance with Formulation 1 was weighed so as to provide active ingredients in a predetermined amount, and was diluted with water and sprayed uniformly on the soil surface using a small sprayer, in an amount of 100 liters per […]. Then, growing was made in a greenhouse, and the herbicidal effect of each wettable powder was examined at the 30th day from the treatment in accordance with the standard shown in Table 15.

[2] = system: velvetleaf (Abutilon theophrasti Medic); assay: Herbicidal effect by upland field soil treatment (Application Example 2): velvetleaf; type: in vivo; conditions: 30th day from treatment
Description: as §1, §2

corn [3] = assay: Herbicidal effect by upland field soil treatment (Application Example 1): phytotoxicity to corn; type: in vivo; conditions: 30th day from treatment
Description: as §1
as §2, with “corn, green foxtail (Setaria viridis)” for “corn”, “common lambsquarters (Chenopodium album L.)” for “velvetleaf (Abutilon theophrasti Medic)”

[4] = system: green foxtail (Setaria viridis); assay: Herbicidal effect by upland field soil treatment (Application Example 1): green foxtail; type: in vivo; conditions: 30th day from treatment
Description: as §1
as §2, with “corn, green foxtail (Setaria viridis)” for “corn”, “common lambsquarters (Chenopodium album L.)” for “velvetleaf (Abutilon theophrasti Medic)”

[5] = system: common lambsquarters (Chenopodium album L.); assay: Herbicidal effect by upland field soil treatment (Application Example 1): common lambsquarters; type: in vivo; conditions: 30th day from treatment
Description: as §1
as §2, with “corn, green foxtail (Setaria viridis)” for “corn”, “common lambsquarters (Chenopodium album L.)” for “velvetleaf (Abutilon theophrasti Medic)”

[6] = 16 g a.i./ha, upland field soil treatment
[7] = 16 g a.i./ha, soil surface spray of wettable powder, index of Table 15
[8] = 32 g a.i./ha, upland field soil treatment

SMILES: CCNc1nc(Cl)nc(NC(C)C)n1 [Atrazine]
- Corn (corn [1]; 125 g a.i./ha): 0 (Herbicidal effect or phytotoxicity of from 0 to 9%)
- Velvetleaf (Abutilon theophrasti Medic) ([2]; 125 g a.i./ha): 1 (Herbicidal effect or phytotoxicity of from 10 to 19%)

SMILES: Cn1nc(C(F)(F)F)c(CS(=O)(=O)C2=NOC(C)(C)C2)c1C#N [Compound 3-0016, 3-(5-cyano-1-methyl-3-trifluoromethyl-1H-pyrazol-4-ylmethylsulfonyl)-5,5-dimethyl-2-isoxazoline]
- Herbicidal effect Corn (corn [3]; [6]): 0 (Herbicidal effect or phytotoxicity of from 0 to 9%)
- Herbicidal effect Green foxtail (Sataria viridis) [4, 6]: 3 (Herbicidal effect or phytotoxicity of from 30 to 39%)
- Herbicidal effect Common lambsquarter (Chenopodium album L.) [5, 6]: 3 (Herbicidal effect or phytotoxicity of from 30 to 39%)
- melting point: 105 to 108 °C

SMILES: CCn1nc(Cl)c(CS(=O)(=O)C2=NOC(C)(C)C2)c1Cl [Compound 3-0017, 3-(3,5-dichloro-1-ethyl-1H-pyrazol-4-ylmethylsulfonyl)-5,5-dimethyl-2-isoxazoline]
- Herbicidal effect Corn (corn [3]; [6]): 0 (Herbicidal effect or phytotoxicity of from 0 to 9%)
- Herbicidal effect Green foxtail (Sataria viridis) [4, 6]: 3 (Herbicidal effect or phytotoxicity of from 30 to 39%)
- Herbicidal effect Common lambsquarter (Chenopodium album L.) [5, 6]: 3 (Herbicidal effect or phytotoxicity of from 30 to 39%)
- melting point: 105 to 107 °C

SMILES: Cn1nc(C(F)(F)F)c(CS(=O)(=O)C2=NOC(C)(C)C2)c1OC(F)F [Compound 3-188]
- Corn (corn [1]; 16 g a.i./ha): 0 (Herbicidal effect or phytotoxicity of from 0 to 9%)
- Corn (corn [1]; 32 g a.i./ha): 0 (Herbicidal effect or phytotoxicity of from 0 to 9%)
- Velvetleaf (Abutilon theophrasti Medic) ([2]; 16 g a.i./ha): 2 (Herbicidal effect or phytotoxicity of from 20 to 29%)
- Velvetleaf (Abutilon theophrasti Medic) ([2]; 32 g a.i./ha): 2 (Herbicidal effect or phytotoxicity of from 20 to 29%)

Further lines, with some results ahead:

- melting point: 78 to 79 °C
SMILES: Cn1nc(C(F)F)c(CS(=O)(=O)C2=NOC(C)(C)C2)c1Cl [Compound 3-0018, 3-(5-chloro-3-difluoromethyl-1-methyl-1H-pyrazol-4-ylmethylsulfonyl)-5,5-dimethyl-2-isoxazoline]
- Herbicidal effect Corn (corn [3]; [6]): 0 (Herbicidal effect or phytotoxicity of from 0 to 9%)
- Herbicidal effect Green foxtail (Sataria viridis) [4, 6]: 3 (Herbicidal effect or phytotoxicity of from 30 to 39%)
- Herbicidal effect Common lambsquarter (Chenopodium album L.) [5, 6]: 3 (Herbicidal effect or phytotoxicity of from 30 to 39%)

- melting point: 115 to 116 °C
SMILES: Cn1nc(C(F)(F)F)c(CS(=O)(=O)C2=NOC(C)(C)C2)c1Cl [Compound 3-0039, 3-(5-chloro-1-methyl-3-trifluoromethylpyrazol-4-ylmethanesulfonyl)-5,5-dimethyl-2-isoxazoline]
- Herbicidal effect Corn (corn [3]; [7]): 0 (Herbicidal effect or phytotoxicity of from 0 to 9%)
- Herbicidal effect Green foxtail (Sataria viridis) [4, 7]: 3 (Herbicidal effect or phytotoxicity of from 30 to 39%)
- Herbicidal effect Common lambsquarter (Chenopodium album L.) [5, 7]: 3 (Herbicidal effect or phytotoxicity of from 30 to 39%)

- melting point: 98 to 100 °C
SMILES: CCn1nc(C(F)(F)F)c(CS(=O)(=O)C2=NOC(C)(C)C2)c1OC(F)F [Compound 3-0190, 3-(5-difluoromethoxy-1-ethyl-3-trifluoromethyl-1H-pyrazol-4-ylmethanesulfonyl)-5,5-dimethyl-2-isoxazoline]
- Herbicidal effect Corn (corn [3]; [7]): 0 (Herbicidal effect or phytotoxicity of from 0 to 9%)
- Herbicidal effect Green foxtail (Sataria viridis) [4, 7]: 3 (Herbicidal effect or phytotoxicity of from 30 to 39%)
- Herbicidal effect Common lambsquarter (Chenopodium album L.) [5, 7]: 1 (Herbicidal effect or phytotoxicity of from 10 to 19%)

- melting point: 135 to 136 °C
SMILES: Cc1onc(C(F)(F)F)c1CS(=O)(=O)C1=NOC(C)(C)C1 [Compound 4-0001, 5,5-dimethyl-3-(5-methyl-3-trifluoromethylisoxazol-4-ylmethylsulfonyl)-2-isoxazoline]
- Herbicidal effect Corn (corn [3]; [8]): 0 (Herbicidal effect or phytotoxicity of from 0 to 9%)
- Herbicidal effect Green foxtail (Sataria viridis) [4, 8]: 2 (Herbicidal effect or phytotoxicity of from 20 to 29%)
- Herbicidal effect Common lambsquarter (Chenopodium album L.) [5, 8]: 1 (Herbicidal effect or phytotoxicity of from 10 to 19%)
